Structures can show the parent of a compound that is named as a salt.
Assays:
[1] = Measurement of concentration of compound in rat plasma; assay type: in vivo; settings: oral 10 mg/kg; for concentration at 0.25 h: after 0.25 hours; for concentration at 1 h: after 1 hour; for concentration at 4 h: after 4 hours
Experimental: Each of the test compounds was dissolved or suspended in methyl cellulose and the resulting solution or suspension was orally administered to rats at a dosage of 10 mg/kg and blood was collected after 0.25 hours, 1 hour and 4 hours. The concentration in plasma in each of the compounds was measured by HPLC.

[2] = tested on: collagen production induced by TGF-β (NHDF cells); assay: Inhibitory effect on collagen production induced by TGF-β, [3H] proline uptake (NHDF cells); assay type: cell-based, human; settings: Homo sapiens, NHDF, TGF-β1 3 ng/ml
Experimental: (§1) As an index of collagen production, the uptake of [^3H] proline was measured.
(§2) Using a 96-well microplate, normal human skin derived fibroblast (NHDF, 10^4/well) or human embryonic lung fibroblast (TIG-3, 10^4/well) were cultured in a 10% fetal calf serum (FCS)-containing Dulbecco's modified Eagle medium (DMEM) for one day. After removing the culture supernatant, the cells were washed once with a 0.1% bovine serum albumin (BSA)-containing DMEM medium and then cultured in the 0.1% bovine serum albumin (BSA)-containing DMEM medium for one day. After adding each of the test compounds in each concentration (1, 3, 10 μM), the cells were cultured and, after adding TGF-β1 (3 ng/ml) and [^3H] proline (18.5 kBq/well), the cells were further cultured for additional one day.
(§3) After removing the culture supernatant, the cells were washed twice with a phosphate buffer solution (PBS) and dissolved with 0.3M NaOH and 1% sodium dodecylsulfate (SDS), and then each protein fraction was precipitated with trichloroacetic acid (TCA) After the precipitate was filtered through a glass filter (GF/B) and washed, the quantity of [^3H] proline on the glass filter was measured by a liquid scintillation counter. The number of cells was measured by a cell growth measuring kit (XTT, Roche) and the uptake of [^3H] proline was corrected by the number of cells. Inhibitory ratio was calculated as compared with the case where a difference between the uptake of [^3H] proline with or without TGF-β1.

[3] = tested on: collagen production induced by TGF-β (TIG-3 cells); assay: Inhibitory effect on collagen production induced by TGF-β, [3H] proline uptake (TIG-3 cells); assay type: cell-based; settings: Homo sapiens, TGF-β1 3 ng/ml
Experimental: as §1, §2, §3

[4] = tested on: mice; assay: Acute toxicity; assay type: in vivo; settings: oral 1000 mg/kg, observed for a week after administration
Experimental: Each of the compounds in Examples 1, 9, 31, 120, and 121 was administered.

Cn1c(-c2ccccc2)c(/C=C/C(=O)N2CCC(n3c(=O)[nH]c4ccccc43)CC2)c2cccnc21 [Example 29, 1-{1-[(2E)-3-(1-methyl-2-phenyl-1H-pyrrolo[2,3-b]pyridin-3-yl)prop-2-enoyl]piperidin-4-yl}-1,3-dihydro-2H-benzimidazol-2-one hydrochloride]
concentration at 0.25 h [1]: 0.33 to 0.94 µg/mL
concentration at 1 h [1]: 0.28 to 1.1 µg/mL
concentration at 4 h [1]: 0.17 to 0.71 µg/mL
inhibition at 1 µM [2]: 64%
inhibition at 3 µM [2]: 72%
inhibition at 10 µM [2]: 123%

Cc1ncsc1CCNC(=O)c1cnc(N2CCN(C(=O)c3c(-c4ccccc4)n(C)c4ncccc34)CC2)cn1 [Example 27, 5-{4-[(1-methyl-2-phenyl-1H-pyrrolo[2,3-b]pyridin-3-yl)carbonyl]piperazin-1-yl}-N-[2-(4-methyl-1,3-thiazol-5-yl)ethyl]pyrazine-2-carboxamide dihydrochloride]
concentration at 0.25 h [1]: 2.4 to 4.1 µg/mL
concentration at 1 h [1]: 1.5 to 1.9 µg/mL
inhibition at 1 µM [2]: 25%
inhibition at 3 µM [2]: 35%
inhibition at 10 µM [2]: 42%

Cc1ccc2c(c1)c(C(=O)N1CCN(c3cnc(C(=O)NCCc4scnc4C)cn3)CC1)c(-c1ccccc1)n2C [Example 80, 5-{4-[(1,5-dimethyl-2-phenyl-1H-indol-3-yl)carbonyl]piperazin-1-yl}-N-[2-(4-methyl-1,3-thiazol-5-yl)ethyl]pyrazine-2-carboxamide]
inhibition at 3 µM [3]: 105%
inhibition at 10 µM [3]: 149%

Cc1ccc2c(c1)c(C(=O)N1CCN(c3ccc(-c4nnn(CCO)n4)cn3)CC1)c(-c1ccccc1)n2C.Cl [Example 9, 1,5-dimethyl-2-phenyl-3-[(4-{5-[2-(2-hydroxyethyl)-2H-tetrazol-5-yl]pyridin-2-yl}piperazin-1-yl)carbonyl]-1H-indole hydrochloride]
concentration at 0.25 h [1]: 1.3 to 3.9 µg/mL
concentration at 1 h [1]: 0.72 to 2.2 µg/mL
concentration at 4 h [1]: 0.35 to 0.53 µg/mL
Acute toxicity: deaths [4]: no deaths were observed
inhibition at 3 µM [3]: 42%
inhibition at 10 µM [3]: 71%

Cc1ccc2c(c1)c(C(=O)N1CCN(c3ccc(C(=O)N(C)C)cn3)CC1)c(-c1ccccc1)n2C.Cl [Example 120, 6-{4-[(1,5-dimethyl-2-phenyl-1H-indol-3-yl)carbonyl]piperazin-1-yl}-N,N-dimethylnicotinamide hydrochloride]
concentration at 0.25 h [1]: 6.4 to 10 µg/mL
concentration at 1 h [1]: 3.2 to 5.7 µg/mL
concentration at 4 h [1]: 2.5 to 3.1 µg/mL
Acute toxicity: deaths [4]: no deaths were observed

Cc1ccc2c(c1)c(C(=O)N1CCN(c3cnc(C(=O)NCCc4scnc4C)cn3)CC1)c(-c1ccccc1)n2C [Example 5, 5-{4-[(1,5-dimethyl-2-phenyl-1H-indol-3-yl)carbonyl]piperazin-1-yl}-N-[2-(4-methyl-1,3-thiazol-5-yl)ethyl]pyrazine-2-carboxamide trihydrochloride]
concentration at 0.25 h [1]: 1.4 to 2.3 µg/mL
concentration at 1 h [1]: 0.52 to 0.72 µg/mL
concentration at 4 h [1]: 0.087 to 0.16 µg/mL
inhibition at 1 µM [2]: 40%
inhibition at 3 µM [2]: 43%
inhibition at 10 µM [2]: 88%

CO[C@H]1Cc2ccccc2[C@H]1NC(=O)/C=C/c1c(-c2ccccc2)n(C)c2ncccc12 [Example 4, (2E)-N-[(1R,2S)-2-methoxy-2,3-dihydro-1H-inden-1-yl]-3-(1-methyl-2-phenyl-1H-pyrrolo[2,3-b]pyridin-3-yl)acrylamide hydrochloride]
concentration at 0.25 h [1]: 0.39 to 0.5 µg/mL
concentration at 1 h [1]: 0.49 to 0.59 µg/mL
concentration at 4 h [1]: 0.18 to 0.29 µg/mL
inhibition at 1 µM [2]: 41%
inhibition at 3 µM [2]: 70%
inhibition at 10 µM [2]: 138%

Cc1ccc2c(c1)c(C(=O)N1CCN(c3cnc(C(=O)NCCCn4ccnc4)cn3)CC1)c(-c1ccccc1)n2C [Example 31, 5-{4-[(1,5-dimethyl-2-phenyl-1H-indol-3-yl)carbonyl]piperazin-1-yl}-N-[3-(1H-imidazol-1-yl)propyl]pyrazine-2-carboxamide]
concentration at 0.25 h [1]: 0.32 to 0.37 µg/mL
concentration at 1 h [1]: 0.32 to 0.64 µg/mL
concentration at 4 h [1]: 0.42 to 0.65 µg/mL
Acute toxicity: deaths [4]: no deaths were observed
inhibition at 3 µM [3]: 36%
inhibition at 10 µM [3]: 90%
inhibition at 10 µM [2]: 74%

CC(=O)Nc1cnc(N2CCN(C(=O)c3c(-c4ccccc4)n(C)c4ccc(C)cc34)CC2)cn1 [Example 121, N-[5-{4-[(1,5-dimethyl-2-phenyl-1H-indol-3-yl)carbonyl]piperazin-1-yl}pyrazin-2-yl]acetamide]
concentration at 0.25 h [1]: 3.9 to 5.8 µg/mL
concentration at 1 h [1]: 2.1 to 5.8 µg/mL
concentration at 4 h [1]: 0.31 to 0.58 µg/mL
Acute toxicity: deaths [4]: no deaths were observed
inhibition at 3 µM [2]: 39%
inhibition at 10 µM [2]: 54%

COc1ccc(CNC(=O)/C=C/c2c(-c3ccccc3)n(C)c3ccccc23)cc1 [Example 2, (2E)-N-(4-methoxybenzyl)-3-(1-methyl-2-phenyl-1H-indol-3-yl)acrylamide]
inhibition at 3 µM [3]: 74%
inhibition at 10 µM [3]: 117%
inhibition at 1 µM [2]: 23%
inhibition at 3 µM [2]: 61%
inhibition at 10 µM [2]: 79%

CC1c2cc3c(cc2CCN1C(=O)/C=C/c1c(-c2ccccc2)n(C)c2ncccc12)OCO3 (stereo not drawn) [Example 28, 5-methyl-6-[(2E)-3-(1-methyl-2-phenyl-1H-pyrrolo[2,3-b]pyridin-3-yl)prop-2-enoyl]-5,6,7,8-tetrahydro[1,3]dioxolo[4,5-g]isoquinoline hydrochloride]
concentration at 0.25 h [1]: 0.071 to 0.17 µg/mL
concentration at 1 h [1]: 0.4 to 0.55 µg/mL
concentration at 4 h [1]: 0.32 to 0.46 µg/mL
inhibition at 1 µM [2]: 31%
inhibition at 3 µM [2]: 40%
inhibition at 10 µM [2]: 92%

COc1cc2c(cc1OC)C(C)N(C(=O)/C=C/c1c(-c3ccccc3)n(C)c3ncccc13)CC2 (stereo not drawn) [Example 3, 6,7-dimethoxy-1-methyl-2-[(2E)-3-(1-methyl-2-phenyl-1H-pyrrolo[2,3-b]pyridin-3-yl)prop-2-enoyl]-1,2,3,4-tetrahydroisoquinoline hydrochloride]
concentration at 0.25 h [1]: 0.12 to 0.66 µg/mL
concentration at 1 h [1]: 0.37 to 0.64 µg/mL
concentration at 4 h [1]: 0.26 to 0.31 µg/mL
inhibition at 1 µM [2]: 65%
inhibition at 3 µM [2]: 105%
inhibition at 10 µM [2]: 143%

Cc1ccc2c(c1)c(C(=O)N1CCN(c3cnc(C(=O)NCc4ccco4)cn3)CC1)c(-c1ccccc1)n2C [Example 15, 5-{4-[(1,5-dimethyl-2-phenyl-1H-indol-3-yl)carbonyl]piperazin-1-yl}-N-(2-furylmethyl)pyrazine-2-carboxamide]
inhibition at 3 µM [3]: 82%
inhibition at 10 µM [3]: 140%

Cc1ccc2c(c1)c(C(=O)N1CCN(c3cnc(C(=O)NCc4c(C)noc4C)cn3)CC1)c(-c1ccccc1)n2C [Example 32, 5-{4-[(1,5-dimethyl-2-phenyl-1H-indol-3-yl)carbonyl]piperazin-1-yl}-N-[(3,5-dimethylisoxazol-4-yl)methyl]pyrazine-2-carboxamide]
inhibition at 3 µM [3]: 62%
inhibition at 10 µM [3]: 117%

Cc1ccc2c(c1)c(C(=O)N1CCN(c3ccc(C(=O)N(CCO)Cc4ccccc4)cn3)CC1)c(-c1ccccc1)n2C [Example 60, 6-{4-[(1,5-dimethyl-2-phenyl-1H-indol-3-yl)carbonyl]piperazin-1-yl}-N-(2-hydroxyethyl)-N-benzylnicotinamide hydrochloride]
inhibition at 3 µM [3]: 70%
inhibition at 10 µM [3]: 133%

Cc1ccc2c(c1)c(C(=O)N1CCN(c3ccccn3)CC1)c(-c1ccccc1)n2C [Compound A, 1-(1,5-dimethyl-2-phenylindol-3-ylcarbonyl)-4-(2-pyridyl)piperazine hydrochloride, reference compound]
concentration at 0.25 h [1]: 0 to 0.069 µg/mL
concentration at 1 h [1]: 0.055 to 0.12 µg/mL
concentration at 4 h [1]: 0.005 to 0.018 µg/mL
inhibition at 3 µM [3]: 28%
inhibition at 10 µM [3]: 63%
inhibition at 1 µM [2]: 8%
inhibition at 3 µM [2]: 9%
inhibition at 10 µM [2]: 30%

Cc1ccc2c(c1)c(C(=O)N1CCN(c3ccc(C(=O)NCCO)cn3)CC1)c(-c1ccccc1)n2C [Example 1, 6-{4-[(1,5-dimethyl-2-phenyl-1H-indol-3-yl)carbonyl]piperazin-1-yl}-N-(2-hydroxyethyl)nicotinamide]
concentration at 0.25 h [1]: 2.3 to 29 µg/mL
concentration at 1 h [1]: 1.3 to 7.3 µg/mL
concentration at 4 h [1]: 0.75 to 0.94 µg/mL
Acute toxicity: deaths [4]: no deaths were observed
inhibition at 3 µM [3]: 21%
inhibition at 10 µM [3]: 56%

Cc1ccc2c(c1)c(C(=O)N1CCN(c3cnc(C(=O)NCCc4ccccn4)cn3)CC1)c(-c1ccccc1)n2C [Example 76, 5-{4-[(1,5-dimethyl-2-phenyl-1H-indol-3-yl)carbonyl]piperazin-1-yl}-N-[2-(2-pyridyl)ethyl]pyrazine-2-carboxamide]
inhibition at 3 µM [3]: 78%
inhibition at 10 µM [3]: 101%
